This assay concerns Streptococcus mutans (Smu) THF riboswitch aptamer (RNA, riboswitch) GGAGAGUAGAUGAUUCGCGUUAAGUGUGUGUGAAUGGGAUGUCGUCACACAACGAAGCGAGAGCGCGGUGAAUCAUUGCAUCCGCUCCA
The assay can be described thus: ITC. Particulars: 70 mM NaCl, 2.5 mM MgCl2, 70 mM Na-HEPES pH 8.0, 1 mM DTT, 37 °C.

The term KD denotes the constant that tells how readily two partners part at equilibrium. The low end stands for higher affinity, the high end for lower affinity.

Structures are written as SMILES.

As to `Nc1ncnc2[nH]cnc12`, the KD came to 8 ± 1 µM. Same read-out and setting: for `Nc1ncc2[nH]cnc2n1` the value was 26 ± 3 µM. In the case of `Nc1nc(N)c2[nH]cnc2n1`, the KD (PK site only) was 0.5 ± 0.1 µM.

Regarding `Nc1nc2c(N)ncnc2[nH]1`, the KD amounted to 160 ± 20 µM.
